# In patent US12533389B2, “Glycopeptide antibiotic combination therapy” (The Trustees of Princeton University, priority 2021, dated 2026):
# Like-named read-outs stand apart in the source and are kept apart here.
# Key:
# [1] = tested on: C. difficile; settings: cited from earlier work
# [2] = tested on: Nα,Nε-diacetyl-L-Lys-D-Ala-D-Ala tripeptide; assay: Isothermal titration calorimetry (ITC) equilibrium binding of GPAs to the tripeptide ligand; settings: for ΔG: Experiment (ITC)
# [3] = tested on: Clostridium difficile, Strain P8; assay: Antimicrobial susceptibility profile of selected gut bacteria; format: cell-based; settings: drug alone
# [4] = tested on: Ruminococcus lactaris, Strain CC59_002D, HM-1057; assay: as above; format: cell-based; settings: drug alone
# [5] = tested on: selected gut bacteria; assay: as above; format: cell-based
# [6] = tested on: C. difficile P8; assay: MIC by agar dilution method (CLSI); format: cell-based, Clostridium difficile
# Protocol: Minimal inhibitory concentrations (MICs) were determined by the agar dilution method following the guidelines of the Clinical and Laboratory Standards Institute (CLSI). […] The effect of vancomycin in combination with keratinicyclin B against C. difficile P8 was assessed by the checkerboard agar dilution method. […] The antibiotic agar plates were prereduced in an anaerobic container prior to inoculation. […] To avoid the selection of an atypical variant, five colonies were suspended in prereduced Gifu anaerobic broth and grown to a density equivalent to a 0.5 McFarland standard (1-2×10^8 cfu/mL). […] After incubating anaerobically at 37° C. for 48 h, the plates were inspected for bacterial growth. The MIC was defined as the lowest concentration of antibiotic leading to no growth, one colony, or a fine haze.
# [7] = tested on: Clostridium perfringens, Strain WAL-14572; format: cell-based; settings: drug alone
# [8] = tested on: C. difficile P8; assay: Checkerboard agar dilution of vancomycin in combination with keratinicyclin B; format: cell-based, Clostridium difficile
# Protocol: Minimal inhibitory concentrations (MICs) were determined by the agar dilution method following the guidelines of the Clinical and Laboratory Standards Institute (CLSI). […] The effect of vancomycin in combination with keratinicyclin B against C. difficile P8 was assessed by the checkerboard agar dilution method. […] The antibiotic agar plates were prereduced in an anaerobic container prior to inoculation. […] To avoid the selection of an atypical variant, five colonies were suspended in prereduced Gifu anaerobic broth and grown to a density equivalent to a 0.5 McFarland standard (1-2×10^8 cfu/mL). Once the appropriate cell density was reached, the prereduced antibiotic agar plates were inoculated (10^5 cfu/spot). After incubating anaerobically at 37° C. for 48 h, the plates were inspected for bacterial growth. The MIC was defined as the lowest concentration of antibiotic leading to no growth, one colony, or a fine haze. […] The combination effect was defined as synergistic when ΣFIC≤0.5, additive when 0.5<ΣFIC≤1, indifferent when 1<ΣFIC≤2, and antagonistic when ΣFIC>2.
# [9] = tested on: diverse Gram-positive bacteria; settings: cited from earlier work
# [10] = target: tripeptide ligand; settings: cited from earlier work
# [11] = tested on: C. difficile infection; settings: compared to metronidazole and vancomycin; cited from earlier work
# [12] = ITC, 25° C., 0.1 M sodium phosphate buffer, pH 7
compound,measurement,setting,value
CO[C@H]1[C@H](C)O[C@@H](O[C@@H]2c3ccc(c(Cl)c3)Oc3cc4cc(c3O[C@@H]3O[C@H](CO)[C@@H](O)[C@H](O)[C@H]3O[C@H]3C[C@H](N)[C@@H](O)[C@H](C)O3)Oc3ccc(cc3)[C@H]3OC(=O)N[C@H]3C(=O)N[C@@H](Cc3ccccc3)C(=O)N[C@H]4C(=O)N[C@H]3C(=O)N[C@@H]2C(=O)N[C@H](C(=O)O)c2cc(O)cc(O[C@H]4O[C@H](CO)[C@@H](O)[C@H](O)[C@@H]4O)c2-c2cc3ccc2O)C[C@@H]1N [keratinicyclin B],minimal inhibitory concentration (MIC),[1]; previous bioactivity data,9.8 µM
same,spectrum of activity,[1]; previously shown,narrow-spectrum activity against C. difficile
same,binding of the tripeptide,"[2]; ITC, several concentrations tested",did not bind the tripeptide
same,Kd,"[2]; ITC, estimated based on the sensitivity of the setup",> 500 µM
same,growth inhibition,[3],inhibiting the growth
same,growth inhibition,[4],inhibiting the growth
same,spectrum of antibacterial activity,"[5]; each drug alone, FIG. 5",narrower spectrum of antibiotic activity
same,MIC,"[6]; alone, anaerobic, 37° C., 48 h",4 µg/mL
same,growth inhibition,[7],inhibiting the growth
same,Checkerboard analysis result,[8]; keratinicyclin B 4 μg/mL + vancomycin 0 μg/mL,I (I = indifference)
same,Checkerboard analysis result,[8]; keratinicyclin B 8 μg/mL + vancomycin 0 μg/mL,I (I = indifference)
keratinimicin A,ΔG,[2],-7.9 kcal/mol
same,TΔS,"[2]; ITC, 25° C., pH 7",0.85 kcal/mol
same,Kd,"[2]; ITC, 25° C., pH 7, unit inferred",1.7 ± 0.3 µM
same,spectrum of activity,[9],broad-spectrum activity against diverse Gram-positive bacteria
keratinimicin C,Kd,[2]; [12],2.8 ± 0.3 µM
same,TΔS,"[2]; ITC, 25° C., pH 7",0.2 kcal/mol
same,ΔH,"[2]; ITC, 25° C., pH 7",-7.4 ± 0.3 kcal/mol
C[C@@H]1O[C@@H](O[C@H]2[C@H](Oc3c4cc5cc3Oc3ccc(cc3Cl)[C@@H](O)[C@@H](N)C(=O)N[C@@H](CC(N)=O)C(=O)N[C@H]5C(=O)N[C@H]3C(=O)N[C@H](C(=O)N[C@H](C(=O)O)c5cc(O)cc(O)c5-c5cc3ccc5O)[C@H](O)c3ccc(c(Cl)c3)O4)O[C@H](CO)[C@@H](O)[C@@H]2O)C[C@](C)(N)[C@@H]1O [desleucyl-1],Kd,"[10]; Experiment section of Table 2, reported value",~20000 µM
same,binding of the tripeptide ligand,[10]; N-terminal N-Me-D-Leu removed by Edman degradation,does not bind the tripeptide ligand
same,Kd,[10]; reported experimental value,~20000 µM
CCc1c(Cl)c(O)c(Cl)c(O)c1C(=O)O[C@H]1[C@H](O)[C@H](OC)[C@H](OC/C2=C\C=C\C[C@H](O)/C(C)=C/[C@H](CC)[C@@H](O[C@@H]3OC(C)(C)[C@@H](OC(=O)C(C)C)[C@H](O)[C@@H]3O)/C(C)=C/C(C)=C/C[C@@H]([C@@H](C)O)OC2=O)O[C@@H]1C [fidaxomicin],recurrence rates,[11],halves recurrence rates
CN[C@H](CC(C)C)C(=O)N[C@H]1C(=O)N[C@@H](CC(N)=O)C(=O)N[C@H]2C(=O)N[C@H]3C(=O)N[C@H](C(=O)N[C@H](C(=O)O)c4cc(O)cc(O)c4-c4cc3ccc4O)[C@H](O)c3ccc(c(Cl)c3)Oc3cc2cc(c3O[C@@H]2O[C@H](CO)[C@@H](O)[C@H](O)[C@H]2O[C@H]2C[C@](C)(N)[C@H](O)[C@H](C)O2)Oc2ccc(cc2Cl)[C@H]1O [vancomycin],ΔG,[2],-7.6 kcal/mol
same,Kd,[2]; [12],2.7 ± 0.4 µM
same,TΔS,"[2]; ITC, 25° C., pH 7",-0.96 kcal/mol
same,ΔH,"[2]; ITC, 25° C., pH 7",-8.6 ± 0.5 kcal/mol
same,spectrum of antibacterial activity,[5],broad-spectrum antibacterial activity against all tested Gram-positive bacteria
same,MIC,"[6]; Clostridioides difficile, P8, 48 h",1 µg/mL
